Results on 5 molecules are retold here after patent US20230109717A1 (GAIA BioMedicine Inc., priority 2020, published 2023).

“Also recorded” adds a separate entry of the source.

The test system of series [1] is highly active NK cells. Briefly: Viable cell count and recovery rate of highly active NK cells after thawing, based on cell number at freezing. Set-up: species or system human. How it is done: After the thawing, all the dilution and incubation operations were performed on a low-absorption 6-well plate.
The cells of the groups diluted in the media were incubated overnight at 37° C. under 5% CO2, and then the numbers of viable cells were counted. The experimental conditions are summarized below.
The NK cells obtained by the collection method 1 were suspended in PBS, and incubated at room temperature for 1 hour. The NK cells obtained by the collection method 2 were suspended in (1) the KBM501 medium, (2) KBM501 medium containing 30 μM 4-phenylbutyric acid, (3) KBM501 medium containing 30 μM tauroursodeoxycholic acid dihydrate (TUDCA, Tokyo Kasei Kogyo, T1567), and (4) KBM501 medium containing 30 μM 4-phenylbutyric acid and 30 μM TUDCA, and incubated at 37° C. for 2 hours under 5% CO2. […] After 1 hour, the cells were gently suspended, and number of viable cells was counted. After another 5-fold dilution in the KBM501 medium and incubation at 37° C. for 2 hours under 5% CO2, number of viable cells was counted, and the recovery rate based on the number of cells at the time of freezing was calculated.
After 1 and 3 hours, the cells were gently suspended, and viable cells were counted. In addition, after 1 hour, the cells were diluted 5-fold in the KBM501 medium, and incubated at 37° C. for 2 hours under 5% CO2, and viable cell were counted. Recovery rate of viable cells after the thawing based on the cell number at the time of freezing was calculated using the number of viable cells at each time point.
After 1 and 3 hours, the cells were gently suspended, and viable cells were counted. In addition, after 1 hour, the cells were diluted 5-fold in the KBM501 medium, and incubated at 37° C. for 2 hours under 5% CO2, and viable cell were counted. Recovery rate of viable cells after the thawing based on the cell number at the time of freezing was calculated on the basis of the number of viable cells at each time point after the thawing.

Series [2] concerns highly active NK cells. Briefly: Viability of freeze-thawed highly active NK cells (7-AAD staining, flow cytometry, FlowJo). How it is done: The highly activated NK cells (1×10^5 cells/well) thawed under each condition were centrifuged on a 96-well plate (IWAKI, 4870-800SP), the supernatant was removed, and then a 7-amino-actinomycin D (7-AAD) solution diluted with PBS (Beckman Coulter, A 07704) was added to the cells to suspend them, and the suspension was incubated at room temperature (room temperature means 15 to 25° C., the same shall apply in the following experiments) for 20 minutes. The stained cells were measured by using a flow cytometer (BD LSR Fortessa, BD Biosciences).
The NK cells frozen for 48 hours or longer were thawed in a water bath at 37° C., and 1×10^5 cells were dispensed on a 96-well plate (IWAKI) immediately after the thawing. […] The cells dispensed immediately after thawing were centrifuged immediately after they were dispensed, and the cells of the other four groups were centrifuged after incubation of 3 hours, measurement was performed by the method for staining with 7-AAD described above, and the results were analyzed with the FlowJo software (FLOWJO, LLC) to calculate viable cell rates.
The NK cells frozen for 48 hours or longer were thawed at 37° C. in a water bath, and then 1×10^5 of the cells were dispensed on a 96-well plate immediately after the thawing. […] The cells dispensed immediately after thawing were centrifuged immediately after they were dispensed, and the cells of the other four groups were centrifuged after incubation of 3 hours, measurement was performed by the method for staining with 7-AAD described above, and the results were analyzed with the FlowJo software (FLOWJO, LLC) to calculate viable cell rates.
Then, measurement was performed by the method for staining with 7-AAD described above, and the results were analyzed with the FlowJo software. […] Then, measurement was performed by the method for staining with 7-AAD described above, and the results were analyzed with the FlowJo software. (8-3) The experiment was performed in the same manner as in (8-1), but (1) PBS, (2) Plasma-Lyte A, (3) Plasma-Lyte A containing 27.7 mEq/L of lactic acid (Nacalai Tesque, 20006-62), (4) Plasma-Lyte A containing 48.84 mg/L of MgSO4.7H2O (Nacalai Tesque, 21002-85), (5) Lactoringer, (6) Veen-F (Fuso Pharma), (7) Solita-T1 (AY Pharmaceuticals), (8) Solita-T3 (AY Pharmaceuticals), (9) 5% glucose injection solution (Terumo), and (10) RPMI medium were used as the solvents for dilution of thawed cells, and the cells were incubated at 37° C. for 3 hours. In the case of (3), lactic acid was added at the same concentration as the lactate concentration in Lactoringer, and neutrality of the solution was confirmed with litmus test paper. In the case of (4), MgSO4 was added at the same concentration as the MgSO4 concentration in HBSS. Measurement was then performed by the method for staining with 7-AAD described above, and the results were analyzed with the FlowJo software. (8-4) The experiment was performed in the same manner as in (8-2), but the cells were treated by using (1) PBS, (2) Plasma-Lyte A, (3) saline (OTSUKA NORMAL SALINE, Otsuka Pharmaceutical), (4) Bicanate (Otsuka Pharmaceutical), and (5) Solacet F (Terumo) as the solvents for dilution of thawed cells. Measurement was then performed by the method for staining with 7-AAD described above, and the results were analyzed with the FlowJo software. […] Immediately after completely thawed, the cells were diluted 10-fold in (1) Plasma-Lyte A, (2) saline, (3) RPMI 1640 medium, (4) Lactoringer, (5) 0.423 mM CaCl2 prepared in Plasma-Lyte A, and (6) 1.36 mM CaCl2, and left to stand at 37° C. for 3 hours. The CaCl2 concentration of (5) was the same as that in the RPMI 1640 medium, and the CaCl2 concentration of (6) was the same as that in Lactoringer. Measurement was then performed by the method for staining with 7-AAD described above, and the results were analyzed with the FlowJo software.

For a further series, the system named is K562 cells. Briefly: Cytotoxic activity rate (% Lysis) of freeze-thawed highly active NK cells against K562 cells. Type of series: cell-based. To be noted: Exmp. 7, collect. method 2, pretreatment KBM + 2.4% DMSO 2 h. How it is done:
Cytotoxic activity can be expressed as the percentage of target cells killed by effector cells, and is calculated in accordance with the following equation.
(Cell death observed in co-culture with effector cells−Spontaneous cell death (negative control))/(Maximum cell death (positive control)−Spontaneous cell death (negative control))×100
For the measurement of cytotoxic activity, a group of the K562 cells reacted with the NK cells, a group consisting solely of the K562 cells as a negative control, and a group of the K562 cells fixed with 10% formalin as a positive control were prepared.
After incubation for the times indicated for the groups, the cells were collected, and prepared at a density of 2×10^6 cells/mL in 10% FBS/RPMI 1640.
The K562 cells (human chronic myelogenous leukemia cell line) were suspended in serum-free RPMI 1640 medium, stained with PKH26 Red Fluorescent Cell Linker Kit (Sigma, PKH26GL-1KT), and finally prepared at a density of 2×10^6 cells/mL in 10% FBS/RPMI 1640.
The NK cells and K562 cells were added and mixed in wells of 96-well plate (IWAKI, 4870-800SP) at a cell ratio of 1:1, and allowed to react at 37° C. for 2 hours under 5% CO2. After the reaction, the plate was centrifuged (500×g, 5 minutes), and the supernatant was removed. Then, a 7-AAD solution diluted with PBS was added to the cells to suspend the cells, and the suspension was incubated at room temperature for 20 minutes. […]
For the measurement of cytotoxic activity, a group of the NK cells reacted with the K562 cells, a group solely consisting of the K562 cells as a negative control, and a group of the K562 cells fixed with 10% formalin as a positive control were prepared.
The cells were thawed and diluted by the method described above, and a necessary amount of the cells were taken on the basis of the number of viable cells at the time of freezing, and then prepared at a density of 2×10^6 cells/mL in 10% FBS/RPMI 1640.
The K562 cells were suspended in serum-free RPMI 1640 medium, stained with PKH26 Red Fluorescent Cell Linker Kit, and then prepared at a density of 2×10^6 cells/mL in 10% FBS/RPMI 1640. […]
For the measurement of cytotoxic activity, a group of NK cells reacted with K562 cells, a group of K562 cells only as a negative control, and a group of K562 cells fixed with 10% formalin as a positive control were prepared. […]
(9-2) Cytotoxic activity was measured in the same manner as described in the section of (9-1), but after thawing and dilution, the cells were left to stand for up to 6 hours, and cytotoxic activity was measured by the method described in the section b) mentioned above at the time points of 2, 5, and 6 hours. In detail, the NK cells and K562 cells were added to each well of a 96-well plate (IWAKI, 4870-800SP) at a cell ratio of 1:1, mixed, and then allowed to react at 37° C. for 2 hours under 5% CO2.

Series [3] relates to highly active NK cells. Briefly: Optical microscope observation of highly active NK cells after freeze-thawing. Type of series: cell-based, human. To be noted: additive in KBM501 medium used for 10-fold dilution after thawing; 37° C. 3 hours (or 4° C. 3 hours then 37° C. 3 hours); cells washed with PBS.
Method: The NK cells frozen for 48 hours or longer were thawed at 37° C. in a water bath, then diluted 10-fold in the solvents mentioned below, left to stand at the temperatures for the times mentioned below, then observed and photographed under an optical microscope.
<1> Diluted in the KBM501 medium, and left to stand at 37° C. for 3 hours. <2> Diluted in the KBM501 medium containing Z-Vad, and left to stand at 37° C. for 3 hours. <3> Diluted in the KBM501 medium containing methylprednisolone, and left to stand at 37° C. for 3 hours. <4> Diluted in the KBM501 medium containing dexamethasone, and left to stand at 37° C. for 3 hours. <5> Diluted in the KBM501 medium, and left to stand at 4° C. for 3 hours. <6> Diluted in the KBM501 medium containing methylprednisolone, and left to stand at 4° C. for 3 hours, and then at 37° C. for 3 hours. <7> Diluted in the KBM501 medium containing dexamethasone, and left to stand at 4° C. for 3 hours, and then at 37° C. for 3 hours.

`O=C(O)CCCc1ccccc1` [4-PBA, 4-phenylbutyric acid]: the “Recovery rate after the thawing” value with highly active NK cells [1] (pretreatment 2 hours with KBM501 medium supplemented with 30 μM additive before freezing, Example 5) is recorded as “improved”. The “Viability after the thawing” value in the series with highly active NK cells [1] (treatment with KBM501 supplemented with 10 or 100 μM additive before freezing, viable cells counted after overnight incubation, Example 4) is recorded as “improved”. Also, the Viability entry in the series with highly active NK cells [2] (Exmp. 4, collect. method 1, pretreatment KBM + 10 μM 4-PBA 2 h, thawing PlasmaLyte + IL-2 1 h, then KBM o/n) is “A (“A” means 70% or higher)”.

On to `C[S+](C)[O-]` [DMSO, dimethyl sulfoxide], for which the Activity result in the series with K562 cells (thawing PlasmaLyte + IL-2, R.T. 1 h) is recorded as “A (A means 70% or higher)”; in the series on K562 cells (thawing PlasmaLyte + IL-2, R.T. 1 h, then KBM 2 h), “A (A means 70% or higher)”; in the series with K562 cells (thawing PlasmaLyte + IL-2, R.T. 3 h), “A (A means 70% or higher)”; in the series with K562 cells (thawing PlasmaLyte R.T. 1 h), “A (A means 70% or higher)”; in the series with K562 cells (thawing PlasmaLyte R.T. 1 h, then KBM 2 h) it was “A (A means 70% or higher)”; in the series on K562 cells (thawing PlasmaLyte R.T. 3 h) it was “A (A means 70% or higher)”.

As for `[Cl-].[Cl-].[Mg+2]` [MgCl2, Magnesium chloride], in the series on highly active NK cells [2] (100 mM as solution used at thawing, cells washed with KBM501 medium, conditions (12-4) and (12-5)), the Viability entry is on record as “degraded”.

On to `O=C([O-])[C@H](O)[C@@H](O)[C@H](O)[C@H](O)CO.[Na+]` [gluconic acid, sodium gluconate], for which the “Viability of frozen highly active NK cells after thawing” value in the series with highly active NK cells [2] (added to KBM501 medium used for dilution at thawing (5.02 mg/mL sodium gluconate), 37° C. 3 hours, Example 1) is “did not show improvement; also recorded: no improvement”.

Consider Z-VAD, for which the “Viability of highly active NK cells after freeze-thawing (optical micrographs)” value with highly active NK cells [3] is “not improved”.
